pIC50: −log10 of the molar value.
How the values were obtained:
[1] = molecular target: T1, Histone deacetylase 2 (Homo sapiens, UniProt Q92769); test: Inhibition of HDAC2 (unknown origin) using compound purified by traditional preparative HPLC work-flow
[2] = molecular target: T2, Histone deacetylase 1 (Homo sapiens, UniProt Q13547); test: Inhibition of HDAC1 (unknown origin) using compound purified by traditional preparative HPLC work-flow
[3] = molecular target: T1, Histone deacetylase 2; test: Inhibition of HDAC2 (unknown origin) using compound purified by microgram-scale HPLC work-flow
[4] = molecular target: T2, Histone deacetylase 1; test: Inhibition of HDAC1 (unknown origin) using compound purified by microgram-scale HPLC work-flow

T2 sequence (Q13547 whole entry): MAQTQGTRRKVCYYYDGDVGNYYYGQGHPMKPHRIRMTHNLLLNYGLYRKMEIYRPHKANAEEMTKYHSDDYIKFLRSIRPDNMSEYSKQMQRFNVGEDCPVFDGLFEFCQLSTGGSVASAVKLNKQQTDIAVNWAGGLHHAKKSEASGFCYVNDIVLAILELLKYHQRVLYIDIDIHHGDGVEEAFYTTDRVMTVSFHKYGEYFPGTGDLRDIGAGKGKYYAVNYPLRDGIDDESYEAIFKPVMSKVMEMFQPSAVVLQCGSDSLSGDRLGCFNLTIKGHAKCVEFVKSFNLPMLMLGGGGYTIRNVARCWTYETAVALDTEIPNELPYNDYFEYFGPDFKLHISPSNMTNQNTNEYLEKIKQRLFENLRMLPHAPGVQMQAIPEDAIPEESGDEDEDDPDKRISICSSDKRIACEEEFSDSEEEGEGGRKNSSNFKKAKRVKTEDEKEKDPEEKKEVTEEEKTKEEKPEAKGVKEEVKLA
T1 sequence (Q92769 whole entry): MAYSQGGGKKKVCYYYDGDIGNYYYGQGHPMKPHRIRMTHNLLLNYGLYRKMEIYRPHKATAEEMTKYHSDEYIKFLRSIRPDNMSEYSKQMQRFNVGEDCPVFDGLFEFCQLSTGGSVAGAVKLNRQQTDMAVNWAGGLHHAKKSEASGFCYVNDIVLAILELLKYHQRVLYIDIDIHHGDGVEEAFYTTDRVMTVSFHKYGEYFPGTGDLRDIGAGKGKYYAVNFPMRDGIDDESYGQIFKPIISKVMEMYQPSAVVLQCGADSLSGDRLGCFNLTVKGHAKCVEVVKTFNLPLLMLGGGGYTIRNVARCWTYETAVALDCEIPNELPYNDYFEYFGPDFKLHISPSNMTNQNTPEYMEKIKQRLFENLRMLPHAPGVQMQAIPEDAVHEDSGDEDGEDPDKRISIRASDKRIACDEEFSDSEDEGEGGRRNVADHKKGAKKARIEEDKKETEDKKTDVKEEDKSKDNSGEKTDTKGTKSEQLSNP

Row | SMILES | pIC50 [1] | pIC50 [2] | pIC50 [3] | pIC50 [4]
1 | CCC(=O)CCCCC[C@H](NC(=O)[C@H]1CC12CCN(C)CC2)c1ncc(-c2cn(C)c3ccccc23)[nH]1 | 8.54 | 9.30 | – | –
2 | CCC(=O)CCCCC[C@H](NC(=O)[C@H]1CC12CCN(C)CC2)c1ncc(-c2ccn3ncnc3c2)[nH]1 | 6.46 | 7.15 | 6.60 | 7.36
3 | CCC(=O)CCCCC[C@H](NC(=O)[C@H]1CC12CCN(CC)CC2)c1ncc(-c2cc(C(F)(F)F)ccc2OC)[nH]1 | – | – | 7.80 | 8.74
4 | CCC(=O)CCCCC[C@H](NC(=O)[C@H]1CC12CCN(C)CC2)c1ncc(-c2ccc(C)nc2OC)[nH]1 | 7.72 | 8.43 | 7.74 | 8.49
5 | CCC(=O)CCCCC[C@H](NC(=O)[C@H]1CC12CCN(CC)CC2)c1ncc(-c2cc(C(C)C)c(F)cc2OC)[nH]1 | – | – | 6.55 | 7.20
6 | CCC(=O)CCCCC[C@H](NC(=O)[C@H]1CC12CCN(C)CC2)c1ncc(-c2ccc(-c3cccnc3)nc2)[nH]1 | 7.52 | 8.19 | 7.85 | 8.59
7 | CCOc1ncc(-c2cnc([C@H](CCCCCC(=O)CC)NC(=O)[C@H]3CC34CCN(C)CC4)[nH]2)cn1 | 6.13 | 6.84 | 6.23 | 7.00
8 | CCC(=O)CCCCC[C@H](NC(=O)[C@H]1CC12CCN(C)CC2)c1ncc(-c2ccc3[nH]c4ccccc4c3c2)[nH]1 | 8.96 | – | – | –
9 | CCC(=O)CCCCC[C@H](NC(=O)[C@H]1CC12CCN(CC)CC2)c1ncc(-c2cccc(C(F)(F)F)c2OC)[nH]1 | – | – | 7.20 | 7.89
10 | CCC(=O)CCCCC[C@H](NC(=O)[C@H]1CC12CCN(CC)CC2)c1ncc(-c2cc(C#N)ccc2OC)[nH]1 | – | – | 7.21 | 7.92
11 | CCC(=O)CCCCC[C@H](NC(=O)[C@H]1CC12CCN(CC)CC2)c1ncc(-c2c(OC)ccc(F)c2F)[nH]1 | – | – | 5.81 | 6.22

More lines, in order of rising pIC50 [3], values ahead:

Row | pIC50 [1] | pIC50 [2] | pIC50 [3] | pIC50 [4] | SMILES
12 | 5.80 | 6.46 | 5.78 | 6.52 | CCC(=O)CCCCC[C@H](NC(=O)[C@H]1CC12CCN(C)CC2)c1ncc(C2=CC(=O)N(C)CC2)[nH]1
13 | – | – | 6.31 | 6.99 | CCC(=O)CCCCC[C@H](NC(=O)[C@H]1CC12CCN(C)CC2)c1ncc(-c2cnc(-n3cc(C)cn3)nc2)[nH]1
14 | – | – | 6.43 | 7.14 | CCC(=O)CCCCC[C@H](NC(=O)[C@H]1CC12CCN(CC)CC2)c1ncc(-c2c(F)cccc2OC)[nH]1
15 | – | – | 6.49 | 7.66 | CCC(=O)CCCCC[C@H](NC(=O)[C@H]1CC12CCN(CC)CC2)c1ncc(-c2c(F)cc(C(=O)Nc3cc(C(F)(F)F)ccn3)cc2OC)[nH]1
16 | – | – | 6.81 | 7.51 | CCC(=O)CCCCC[C@H](NC(=O)[C@H]1CC12CCN(CC)CC2)c1ncc(-c2cc(C(=O)OC)c(F)cc2OC)[nH]1
17 | 6.75 | 7.44 | 6.88 | 7.66 | CCC(=O)CCCCC[C@H](NC(=O)[C@H]1CC12CCN(C)CC2)c1ncc(-c2ccnc(N3CCOCC3)c2F)[nH]1
18 | 6.79 | 7.55 | 7.04 | 7.85 | CCC(=O)CCCCC[C@H](NC(=O)[C@H]1CC12CCN(C)CC2)c1ncc(-c2cnc3cccnc3c2)[nH]1
19 | – | – | 7.06 | 6.92 | CCC(=O)CCCCC[C@H](NC(=O)[C@H]1CC12CCN(CC)CC2)c1ncc(-c2ccc(C(=O)Nc3cc(C(F)(F)F)ccn3)cc2OC)[nH]1
20 | 7.19 | 7.85 | 7.15 | 7.92 | CCC(=O)CCCCC[C@H](NC(=O)[C@H]1CC12CCN(C)CC2)c1ncc(-c2ccc(-n3nc(C)cc3C)cc2)[nH]1
21 | 7.27 | 8.04 | 7.15 | 7.96 | CCC(=O)CCCCC[C@H](NC(=O)[C@H]1CC12CCN(C)CC2)c1ncc(-c2ccc(C(=O)NC3CCOC3)cc2)[nH]1 (some centres not stated)
22 | – | – | 7.37 | 8.11 | CCC(=O)CCCCC[C@H](NC(=O)[C@H]1CC12CCN(CC)CC2)c1ncc(-c2cc([N+](=O)[O-])ccc2OC)[nH]1
23 | – | – | 7.41 | 8.16 | CCOC(=O)C1CC1c1ccc(OC)c(-c2cnc([C@H](CCCCCC(=O)CC)NC(=O)[C@H]3CC34CCN(CC)CC4)[nH]2)c1 (some centres not stated)
24 | – | – | 8.04 | 8.96 | CCOC(=O)c1cc2cc(OC)c(-c3cnc([C@H](CCCCCC(=O)CC)NC(=O)[C@H]4CC45CCN(CC)CC5)[nH]3)cc2o1
25 | – | – | 8.85 | 7.85 | CCC(=O)CCCCC[C@H](NC(=O)[C@H]1CC12CCN(CC)CC2)c1ncc(C2=CCC(C)N=C2OC)[nH]1 (some centres not stated)

Source: ChEMBL document CHEMBL4680369, “Synthesis of HDAC Inhibitor Libraries via Microscale Workflow” (ACS Med Chem Lett, 2021)
